Reference: US7700584B2 (Hangzhou Minsheng Pharmaceuticals Co., Ltd., priority 2004, dated 2010)
In brackets after ≈: the same amount, converted by molar mass. Counter-ions that a name gives are not always drawn. Like-named read-outs stand apart in the source and are kept apart here.

Tests used:
[1] = system: HL-60 human promyelocytic leukemia; assay: In vitro anti-tumor IC50 (MTT), HL-60; format: cell-based; details: Homo sapiens, HL-60; Table 4; read-out: IC50 (ug/ml) against tumor cell lines, HL-60
Protocol: (1) Single cell suspension was seeded into 96-well plates (the cells was diluted in the PRMI-1640 minimum medium to 3×10^4 cells/ml, […] diluted cells/well). […] The experiments were performed in quadruplicate.
(2) The medium was removed. Solutions of the anti-tumor agents (50 compounds) were prepared in a freshly prepared medium at serial concentrations. […] of the solution was added into each well. Incubation was continued for 48 hours.
(3) 20 ug of 2 mg/ml MTT was added into each well, and incubated for 4 hours.
(4) The medium was removed from the well. The microplates were swiftly turned down to throw-off the medium. […] of DMSO was added into each well, and vortexed at room temperature for 10 minutes.
(5) OD value (λ=570 nm) was measured with an Enzyme-Linked Detector.
(6) The graph of cell vitality was plotted, and IC50 was calculated.

[2] = system: LLC mouse Lewis lung carcinoma; assay: In vitro inhibition rate to tumor cells (MTT), LLC; format: cell-based; details: 50 μg/ml; for inhibition at 50 µg/mL: Mus musculus, Lewis lung carcinoma
[3] = system: 293 cells; assay: Cell status of 293 cells treated with sample alone (herpes virus screening); details: 200 μg/ml, 24 hrs
[4] = system: Hela human cervical carcinoma; assay: In vitro anti-tumor IC50 (MTT), Hela; format: cell-based; details: Homo sapiens, HeLa; Table 4; read-out: IC50 (ug/ml) against tumor cell lines, Hela
[5] = system: HL-60 human promyelocytic leukemia; assay: In vitro inhibition rate to tumor cells (MTT), HL-60; format: cell-based; details: Homo sapiens, HL-60, 50 μg/ml, read-out: inhibition rate, Results (%) HL-60
[6] = system: Bel-7402 human hepatic carcinoma; assay: In vitro inhibition rate to tumor cells (MTT), Bel-7402; format: cell-based; details: for inhibition at 50 µg/mL: Homo sapiens, Bel-7402, 50 μg/ml, read-out: inhibition rate, Results (%) Bel-7402; for inhibition rate, Results (%) Bel-7402: 50 μg/ml
[7] = system: Hela human cervical carcinoma; assay: In vitro inhibition rate to tumor cells (MTT), Hela; format: cell-based; details: Homo sapiens, HeLa, 50 μg/ml, read-out: inhibition rate, Results (%) Hela
[8] = system: U-937 human histocytic lymphoma; assay: In vitro anti-tumor IC50 (MTT), U-937; format: cell-based; details: Homo sapiens, U-937; Table 4; read-out: IC50 (ug/ml) against tumor cell lines, U-937
[9] = target: T1, HIV-1 reverse transcriptase (Human immunodeficiency virus type 1 group M subtype B, UniProt P04585); assay: Screening for the in vitro activity against the HIV-1 reverse transcriptase; format: biochemical; details: IC50, initial concentration 200 μg/ml
T1 construct: purchased
Summary of the method: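 Colorimetric RT activity assay: HIV-1 RT incorporates Biotin-dUTP into an immobilized template, detected with streptavidin-HRP at OD450. Samples were dissolved in DMSO, then serially diluted 5× in water to five concentrations, and incubated with enzyme and Biotin-dUTP in reaction buffer.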

[10] = system: U-937 human histocytic lymphoma; assay: In vitro inhibition rate to tumor cells (MTT), U-937; format: cell-based; details: Homo sapiens, U-937, 50 μg/ml, read-out: inhibition rate, Results (%) U-937
[11] = system: A-549 human lung adenocarcinoma; assay: In vitro inhibition rate to tumor cells (MTT), A-549; format: cell-based; details: for inhibition at 50 µg/mL: Homo sapiens, A549, 50 μg/ml, read-out: inhibition rate, Results (%) A-549; for inhibition rate, Results (%) A-549: 50 μg/ml
[12] = target: T2, HIV-1 integrase (HIV-1 IN) (Human immunodeficiency virus type 1 group M subtype B, UniProt P04585); assay: Screening for the activity against HIV-1 integrase; format: biochemical; details: for inhibition at 100 µg/mL: initial concentration 100 μg/ml, read-out: IC50
T2 construct: a purified HIV-1 integrase was added into each well; purchased
Summary of the method: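 Purified HIV-1 integrase with plate-bound 30-nt donor oligonucleotide and biotinylated 20-nt target oligonucleotide; samples tested at four 5-fold serial dilutions. Strand-transfer product detected by ELISA with biotin-labeled alkaline phosphatase, read as OD450.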

[13] = system: MCF-7 human mammary adenocarcinoma; assay: In vitro inhibition rate to tumor cells (MTT), MCF-7; format: cell-based; details: for inhibition at 50 µg/mL: Homo sapiens, MCF7, 50 μg/ml, read-out: inhibition rate, Results (%) MCF-7; for inhibition rate, Results (%) MCF-7: 50 μg/ml

Structure (SMILES) | IC50 [1] [µg/mL] | Cytopathy and cell status, Sample [3] | IC50 [4] [µg/mL] | inhibition at 50 µg/mL ([5]; Table 1) [%] | inhibition at 50 µg/mL ([5]; Table 2 (repeated screening)) [%] | inhibition at 50 µg/mL ([5]; Table 3 (repeated screening)) [%] | inhibition at 50 µg/mL ([6]; Table 1) [%] | inhibition at 50 µg/mL ([6]; Table 2 (repeated screening)) [%] | inhibition at 50 µg/mL ([7]; Table 1) [%] | inhibition at 50 µg/mL ([7]; Table 2 (repeated screening)) [%] | inhibition at 50 µg/mL ([7]; Table 3 (repeated screening)) [%] | IC50 [8] [µg/mL] | IC50 [9] [µM] | inhibition at 50 µg/mL ([10]; Table 1) [%] | inhibition at 50 µg/mL ([10]; Table 2 (repeated screening)) [%] | inhibition at 50 µg/mL ([10]; Table 3 (repeated screening)) [%] | inhibition at 50 µg/mL ([11]; Table 1) [%] | inhibition at 50 µg/mL ([11]; Table 2 (repeated screening)) [%] | inhibition at 100 µg/mL [12] [%] | inhibition at 50 µg/mL ([13]; Table 1) [%] | other results
CC(C)C1CC23OC1(O)CC(=CN1CCNCC1)C2CCC3C (centres unmarked) [Compound 7, Curcumol piperazine] | 1.61 (≈ 5.02 µM) | Good | 0.6 (≈ 1.87 µM) | 90.6 | 91 | 90.2 | 55.4 | 60.2 | 90.4 | 89.3 | 89.1 | 0.76 (≈ 2.37 µM) | > 624 | 93 | 90 | 91.2 | 65.3 | 67.2 | < 50 | 88.3 | inhibition rate, Results (%) LLC ([2]; Table 1): 85.42%; inhibition rate, Results (%) LLC ([2]; Table 2 (repeated screening)): −2.99%; inhibition rate, Results (%) LLC ([2]; Table 3 (repeated screening)): −3.66%; inhibition at 50 µg/mL ([6]; Table 3 (repeated screening)): 65.2%; inhibition at 50 µg/mL ([11]; Table 3 (repeated screening)): 65.3%; inhibition at 50 µg/mL ([13]; Table 2 (repeated screening)): 85%; inhibition at 50 µg/mL ([13]; Table 3 (repeated screening)): 84.1%
CC(C)C1CC23OC1(O)CC(=CN1CCNCC1)C2CCC3C (centres unmarked) [Compound 8, Curcumol piperazine hydrochloride] | 1.68 | Good | 0.59 | 92 | 90.2 | 91.1 | 54.3 | 50.5 | 91.9 | 92 | 91.5 | 0.81 | > 624 | 90.3 | 91.3 | 94.4 | 60.5 | 58.6 | < 50 | 89.1 | inhibition at 50 µg/mL ([2]; Table 1): 12.1%; inhibition at 50 µg/mL ([2]; Table 2 (repeated screening)): 1.02%; inhibition at 50 µg/mL ([2]; Table 3 (repeated screening)): 3.12%; inhibition at 50 µg/mL ([6]; Table 3 (repeated screening)): 54.9%; inhibition at 50 µg/mL ([11]; Table 3 (repeated screening)): 55.9%; inhibition at 50 µg/mL ([13]; Table 2 (repeated screening)): 85.2%; inhibition at 50 µg/mL ([13]; Table 3 (repeated screening)): 86.2%
CC(C)C1CC23OC1(O)CC(=CBr)C2CCC3C (centres unmarked) [Compound 17, Curcumol monobromide] | 1.85 | Good | 1.5 | 92.3 | 90.1 |  | -12.4 | -10.9 | 91.6 | 92.4 |  | 0.92 | > 634 | 87.2 | 85.1 |  | 4.68 | 5.23 | < 50 | 53.9 | inhibition at 50 µg/mL ([2]; Table 1): 7.27%; inhibition at 50 µg/mL ([2]; Table 2 (repeated screening)): 2.31%; inhibition at 50 µg/mL ([13]; Table 2 (repeated screening)): 50.3%
C=C1CC2(OS(=O)(=O)O)OC3(CC2C(C)C)C(C)CCC13 (centres unmarked) [Compound 20, Curcumol sulfonate] | 0.45 | Good | 0.89 | 91.3 | 92.4 | 91.7 | 7.89 |  | 94.2 | 90.6 | 92.5 | 0.95 | > 632 | 89.2 | 90.3 | 90 |  | 13 |  |  | inhibition rate, Results (%) LLC ([2]; Table 2 (repeated screening)): 9.37%; inhibition rate, Results (%) LLC ([2]; Table 3 (repeated screening)): 15.32%; inhibition at 50 µg/mL ([2]; Table 1): 8.97%; inhibition rate, Results (%) Bel-7402 ([6]; Table 2 (repeated screening)): 5.36%; inhibition rate, Results (%) Bel-7402 ([6]; Table 3 (repeated screening)): 1.23%; inhibition rate, Results (%) A-549 ([11]; Table 1): 12.50%; inhibition rate, Results (%) A-549 ([11]; Table 3 (repeated screening)): 14.32%; IC50 [12]: 126 µM; inhibition rate, Results (%) MCF-7 ([13]; Table 1): 18.9%; inhibition rate, Results (%) MCF-7 ([13]; Table 2 (repeated screening)): 16.32%; inhibition rate, Results (%) MCF-7 ([13]; Table 3 (repeated screening)): 14.23%
